Experimental data reported in PubChem BioAssay (NCI).
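48-hour exposure; five concentrations; linearly interpolated endpoints. TGI marks complete inhibition of growth.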

Key:
Assay in all cases: NCI-60 cell line screen, 48 h
[1] = tested on: A498 renal
[2] = tested on: M14 melanoma
[3] = tested on: SNB-19 CNS
[4] = tested on: UACC-62 melanoma
[5] = tested on: DU-145 prostate
[6] = tested on: TK-10 renal
[7] = tested on: U251 CNS
[8] = tested on: HCT-116 colon
[9] = tested on: NCI/ADR-RES ovarian
[10] = tested on: RPMI-8226 leukemia
[11] = tested on: UO-31 renal
[12] = tested on: 786-0 renal
[13] = tested on: SN12C renal
[14] = tested on: MALME-3M melanoma
[15] = tested on: HOP-92 NSCLC
[16] = tested on: A549 NSCLC
[17] = tested on: HCT-15 colon
[18] = tested on: SW-620 colon
[19] = tested on: SR leukemia

Structure (SMILES) | TGI [1] | TGI [2] | TGI [3] | TGI [4] | TGI [5] | TGI [6] | TGI [7] | TGI [8] | TGI [9] | TGI [10] | TGI [11] | TGI [12] | TGI [13] | TGI [14] | TGI [15] | TGI [16] | TGI [17] | TGI [18] | TGI [19]
COC1/C=C/C(C)C(C(C)C(OC)C(C)CCC(=O)C(C)C(C/C=C/N(C)C=O)OC)OC(=O)C=CC2OC2(C)CC(OC)C(OC)C2=CC(=O)O[C@@H](C(C)C(OC)CC(OC)/C=C/C(C)C(O)C1)[C@H]2O (stereo partly drawn) | 0.0259 µM | 0.00985 µM | 0.0316 µM | 0.0514 µM | 0.199 µM | 0.0304 µM | 0.0416 µM | 0.00596 µM | 0.263 µM | > 1.24 µM | 0.00831 µM | 0.0176 µM | 0.0342 µM | 0.854 µM | 0.0235 µM | 0.0384 µM | – | – | –
CC1=NNC(=O)C1C1CC(c2c[nH]c3ccccc23)=NNC1=O (stereo not drawn) | > 100 µM | > 100 µM | > 100 µM | > 100 µM | > 100 µM | > 100 µM | > 100 µM | > 100 µM | > 100 µM | > 100 µM | > 100 µM | > 100 µM | > 100 µM | > 100 µM | > 100 µM | > 100 µM | > 100 µM | > 100 µM | –
N#CC1C(=O)NC23CCCCC2C1c1ccccc1O3 (stereo not drawn) | > 100 µM | > 100 µM | > 100 µM | > 100 µM | > 100 µM | > 100 µM | > 100 µM | > 100 µM | > 100 µM | > 100 µM | > 100 µM | > 100 µM | – | > 100 µM | > 100 µM | > 100 µM | > 100 µM | > 100 µM | –
CCOC(=O)C1=NOC2(C=C(Br)C(=O)C(Br)=C2)C1 | 38 µM | 3.29 µM | 40 µM | 8.54 µM | 17.8 µM | 2.27 µM | 26.3 µM | 2.63 µM | > 26.6 µM | 2.56 µM | 2.51 µM | 1.76 µM | 19.6 µM | 1.25 µM | 3.56 µM | 59 µM | 4.91 µM | 2.77 µM | –
O=C(c1ccccc1)c1ccc2nc(-c3c(Cl)c(Cl)c(Cl)c(Cl)c3C(=O)N/N=C/c3ccc(Cl)cc3)[nH]c2c1 | – | > 100 µM | > 100 µM | – | > 100 µM | > 100 µM | > 100 µM | > 100 µM | > 100 µM | 51.3 µM | > 100 µM | 99.6 µM | > 100 µM | > 100 µM | > 100 µM | > 100 µM | > 100 µM | > 100 µM | > 100 µM
CCC(CCCN)Nc1cc(OC)cc2c(C)ccnc12 (stereo not drawn) | 34 µM | 29.3 µM | 27.9 µM | – | 35.5 µM | 31.7 µM | – | 37.2 µM | 76.4 µM | – | 25.6 µM | 28.8 µM | 53.5 µM | 50.4 µM | 30.6 µM | 29.2 µM | 58.4 µM | 36.9 µM | 31.6 µM
O=C(NC1=C(Cl)C(=O)c2ccccc2C1=O)c1ccc(F)cc1 | – | 12.5 µM | 17.3 µM | 2.85 µM | 18.3 µM | 14.6 µM | 12.2 µM | 10.6 µM | 14.8 µM | > 100 µM | – | > 100 µM | 14.5 µM | 3.73 µM | 3.34 µM | > 100 µM | 14.8 µM | 2.51 µM | > 100 µM
COc1cc2c(c(OC)c1)/C(=C/Sc1ccccc1)C(=O)N(C(C)(C)C)C2 | 78.1 µM | – | – | 90 µM | > 100 µM | > 100 µM | 98.6 µM | 40.2 µM | 56.7 µM | 94.5 µM | – | > 100 µM | 69 µM | – | 38.8 µM | – | 91.9 µM | > 100 µM | 66.7 µM
CCC(C=O)P1(=O)OC(C)(C)CN1C(C)(C)C (stereo not drawn) | > 100 µM | > 100 µM | > 100 µM | > 100 µM | > 100 µM | > 100 µM | > 100 µM | > 100 µM | > 100 µM | > 100 µM | > 100 µM | > 100 µM | – | > 100 µM | – | > 100 µM | > 100 µM | > 100 µM | > 100 µM
O=S1(=O)OCCOS(=O)(=O)C1(F)Br | – | > 100 µM | > 100 µM | > 100 µM | > 100 µM | > 100 µM | > 100 µM | > 100 µM | > 100 µM | > 100 µM | > 100 µM | > 100 µM | > 100 µM | > 100 µM | – | > 100 µM | > 100 µM | > 100 µM | > 100 µM
COc1cc2c(cc1OC)C1C=NC(C2)c2cc(OC)c(OC)cc21 (stereo not drawn) | > 100 µM | > 100 µM | > 100 µM | > 100 µM | > 100 µM | > 100 µM | > 100 µM | > 100 µM | > 100 µM | > 100 µM | > 100 µM | > 100 µM | > 100 µM | – | > 100 µM | > 100 µM | > 100 µM | > 100 µM | > 100 µM
COC(=O)[C@@H]1[C@H](OC(C)=O)CCC2[C@@]3(C[C@@H](c4ccoc4)O[C@@H]3OC)[C@H](C)CC[C@]21C(=O)OC (stereo partly drawn) | > 25 µM | > 25 µM | > 25 µM | > 25 µM | > 25 µM | > 25 µM | > 25 µM | > 25 µM | > 25 µM | > 25 µM | > 25 µM | > 25 µM | > 25 µM | – | > 25 µM | > 25 µM | > 25 µM | > 25 µM | > 25 µM
CN1c2ccccc2C(=O)NC12CCN(CCCC(=O)c1ccc(F)cc1)CC2 | – | 32.5 µM | – | > 100 µM | > 100 µM | – | > 100 µM | > 100 µM | > 100 µM | > 100 µM | > 100 µM | > 100 µM | > 100 µM | 86.5 µM | > 100 µM | > 100 µM | > 100 µM | > 100 µM | > 100 µM
CS(=O)(=O)OCC1CN(S(C)(=O)=O)c2cc(O)ccc21 (stereo not drawn) | 7.81 µM | – | – | – | 10 µM | 6.62 µM | 7.26 µM | 12.8 µM | 19.9 µM | 12.2 µM | 11.1 µM | 12 µM | 13.5 µM | 4.35 µM | 7.08 µM | 21.1 µM | 12.2 µM | 28.3 µM | > 100 µM
O=C(O)C12C3CCC(CC3)C1(C(=O)O)C1CCC2C1 (stereo not drawn) | > 100 µM | > 100 µM | > 100 µM | > 100 µM | > 100 µM | > 100 µM | > 100 µM | > 100 µM | > 100 µM | > 100 µM | > 100 µM | > 100 µM | > 100 µM | > 100 µM | – | > 100 µM | > 100 µM | > 100 µM | > 100 µM
O=C(NC1CCCCC1NC(c1ccccc1)(c1ccccc1)c1ccccc1)C(=O)NC1CCCCC1NC(c1ccccc1)(c1ccccc1)c1ccccc1 (stereo not drawn) | > 100 µM | – | > 100 µM | – | > 100 µM | > 100 µM | 57.4 µM | > 100 µM | > 100 µM | > 100 µM | > 100 µM | > 100 µM | > 100 µM | > 100 µM | 60.5 µM | > 100 µM | > 100 µM | > 100 µM | > 100 µM
CC(C)(C)OC(=O)NC(Cc1ccccc1)OCc1ccccc1 (stereo not drawn) | – | 39.7 µM | 37.7 µM | 28.7 µM | 39.6 µM | 41.2 µM | > 10 µM | 31.8 µM | 70.7 µM | 72.6 µM | 35.6 µM | 31 µM | 50.4 µM | 44.2 µM | – | 32.8 µM | 36.1 µM | 34.2 µM | > 100 µM
O=c1[nH]cc(-c2c[nH]c3ccccc23)nc1-c1c[nH]c2ccccc12 | 27.9 µM | 28.1 µM | 34.6 µM | 23.7 µM | 28.1 µM | 30.5 µM | 70.8 µM | 26.7 µM | 49.8 µM | 43.8 µM | 29.8 µM | 23.5 µM | 33.4 µM | 24.1 µM | 33.3 µM | > 100 µM | 23.7 µM | 18.1 µM | –
CC1CC(C)C(C#N)N(C)c2ccccc21 (stereo not drawn) | > 100 µM | > 100 µM | > 100 µM | > 100 µM | > 100 µM | > 100 µM | – | > 100 µM | > 100 µM | > 100 µM | > 100 µM | > 100 µM | > 100 µM | > 100 µM | – | > 100 µM | > 100 µM | > 100 µM | 92.2 µM
Cc1cc(C)c(-n2[nH]c(=O)n(C)c2=O)c(C)c1 | > 100 µM | > 100 µM | > 100 µM | > 100 µM | > 100 µM | > 100 µM | > 100 µM | > 100 µM | > 100 µM | > 100 µM | > 100 µM | > 100 µM | > 100 µM | > 100 µM | – | > 100 µM | > 100 µM | > 100 µM | > 100 µM
C=CCC1(OCc2ccccc2)C(=O)C(=O)OC1C1COC(C)(C)O1 (stereo not drawn) | > 100 µM | > 100 µM | > 100 µM | > 100 µM | > 100 µM | > 100 µM | > 100 µM | > 100 µM | > 100 µM | > 100 µM | > 100 µM | > 100 µM | > 100 µM | > 100 µM | – | > 100 µM | > 100 µM | > 100 µM | > 100 µM
